This note sets out measurements from US11254670B2 (NUVATION BIO INC., priority 2019, dated 2022).

In experiment [1] the target is adenosine A2a (human) membrane (Homo sapiens (Human), UniProt P29274). The experiment can be described thus: A2A adenosine receptor radioligand binding assay ([3H] CGS-21680). The following applies: radioligand [3H] CGS-21680 6 nM. As for the experimental part: A second A2A adenosine receptor radioligand binding assay protocol was used. The protocol used adenosine A2a (human) membrane (PerkinElmer RBHA2AM400UA) at a concentration of 5 μg/well/100 μl and the radioligand [3H] CGS-21680 (Cat No. PerkinElmer-NET1021250UC) at a final concentration of 6 nM. Testing compounds were diluted with DMSO to make 8-point 4-fold serial dilution, starting at 0.2 mM. CGS-15943 was the reference compound. 1 μl of compounds/high control/low control was transferred to the assay plate according to a plate map, followed by 100 μl of membrane stocks and 100 μl of radioligand, in assay buffer (50 mM Tris-HCl, 10 mM MgCl2, 1 mM EDTA, pH 7.4). The plate was sealed and incubated at RT for 2 hours. Unifilter-96 GF/C filter plates (Perkin Elmer Cat #6005174) were soaked with 50 μl of 0.3% PEI per well for at least 0.5 hour at room temperature. When the binding assays were completed, the reaction mixtures were filtered through GF/C plates using Perkin Elmer Filtermate Harvester, and each plate washed 4 times with cold wash buffer (50 mM Tris-HCl, 154 mM NaCl, pH 7.4). The filter plates were dried for 1 hour at 50 degrees. After drying, the bottom of the filter plate wells was sealed, 50 μl of Perkin Elmer Microscint 20 cocktail was added, and the top of the filter plate was sealed. ^3H trapped on the filter was counted using Perkin Elmer MicroBeta2 Reader. The data were analyzed with GraphPad Prism 5 to obtain binding IC50 values. The “Inhibition [% Control]” was calculated using the equation: % Inh=(1−Background subtracted Assay value/Background subtracted HC value)*100, where HC is high control.

Experiment [2] addresses adenosine A1 (human) membrane (Homo sapiens (Human), UniProt P30542). Kind of experiment: A1 adenosine receptor radioligand binding assay ([3H] DPCPX). The following applies: radioligand [3H] DPCPX 1 nM, compound 200 nM. The protocol:
A second A1 adenosine receptor radioligand binding assay protocol was used. The protocol used adenosine A1 (human) membrane (PerkinElmer ES-010-M400UA) at a concentration of 2.5 μg/well/100 μl and the radioligand [3H] DPCPX (Cat No. PerkinElmer-NET974250UC) at a final concentration of 1 nM. Testing compounds were tested at a final concentration of 200 nM. CGS-15943, the reference compound, was tested in an 8-point 4-fold serial dilution, starting at a top concentration of 1 μM. 1 μl of compounds/high control/low control was transferred to the assay plate according to a plate map, followed by 100 μl of membrane stocks and 100 μl of radioligand, in assay buffer (25 mM HEPES, 5 mM MgCl2, 1 mM CaCl2, 100 mM NaCl, pH 7.4). The plate was sealed and incubated at RT for 1 hour. Unifilter-96 GF/C filter plates (Perkin Elmer Cat #6005174) were soaked with 50 μl of 0.3% PEI per well for at least 0.5 hour at room temperature. When the binding assays were completed, the reaction mixtures were filtered through GF/C plates using Perkin Elmer Filtermate Harvester, and each plate washed 4 times with cold wash buffer (25 mM HEPES, 5 mM MgCl2, 1 mM CaCl2, 100 mM NaCl, pH 7.4). The filter plates were dried for 1 hour at 50 degrees. After drying, the bottom of the filter plate wells was sealed, 50 μl of Perkin Elmer Microscint 20 cocktail was added, and the top of the filter plate was sealed. ^3H trapped on the filter was counted using Perkin Elmer MicroBeta2 Reader. The data were analyzed with GraphPad Prism 5 to obtain binding IC50 values for the reference compound. The “Inhibition [% Control]” was calculated using the equation: % Inh=(1−Background subtracted Assay value/Background subtracted HC value)*100, where HC is high control.

In experiment [3] the target is human recombinant adenosine A1 receptor (Homo sapiens (Human), UniProt P30542). Kind of experiment: cAMP assay (Assay 2), HEK-293 cells expressing A1 receptor. In kind it is cell-based. The protocol: (§1) The functional activity of compounds was tested using Assay 2, below, to detect the presence of cAMP. Assay 1 is an alternative assay for this purpose. Activation of G-protein coupled receptors (such as A2A) results in activation of adenylyl cyclase which converts ATP into cAMP which is used as a downstream signaling molecule. Therefore, molecules which act as GPCR (or specifically A2A receptor) antagonists cause a decrease in intracellular cAMP concentration.
(§2) Assay 2 (Table B2): This assay used HEK-293 cells expressing human recombinant adenosine A2A receptor (or, alternatively, A1 receptor) that were grown prior to the test in media without antibiotic. 100 nL of test articles at 100× of final concentration were transferred to assay plate by Echo. Cells were washed twice with 5 mL of PBS and 10 μL of cells were mixed with 5 mL PBS. After aspirating the PBS and adding 1.5 mL versine, cells were incubated at 37° C. for 2-5 min. After centrifugation, 4 mL of medium was added and adjusted cell density to 5,000 cells/well with Stimulation Buffer. 10 μL of cells were aliquoted to the assay plate, centrifuged at 1000 rpm for 1 minute, and incubated for 60 minutes at room temperature. 5 μL 4× Eu-cAMP tracer solution and 5 μL 4× Ulight™-anti-cAMP solution were added to assay plate, followed by centrifugation and 60-minute incubation at room temperature. Plates were read on EnVision.
(In general: Cyclic AMP is a second messenger, typically raised through Gs and lowered through Gi signalling.)

The target in experiment [4] is human recombinant adenosine A2A receptor (Homo sapiens (Human), UniProt P29274). Kind of experiment: cAMP assay (Assay 2), HEK-293 cells expressing A2A receptor. In kind it is cell-based. The following applies: HEK-293 cells expressing human recombinant adenosine A2A receptor. The protocol:
as §1, §2

In experiment [5] the test system is activated human PBMCs. The experiment can be described thus: Human T cell activation assay (TNF-α and IFN-γ ELISA). In kind it is cell-based. The following applies: activated human T cells in vitro, NECA 1 μM or 5 μM. As for the experimental part:
Human T Cell Activation Assay: Fresh human blood was diluted with the same volume of PBS and the buffy coat containing peripheral blood mononuclear cells (PBMCs) were prepared and resuspended in culture medium at a density of 2×10^6/mL. 2×10^5 PBMCs (in 100 μL) were plated to each well of a 96-well flat bottom plate. 25 μL of 8× final concentration of 10-fold serial diluted or single concentration compounds was added to indicated wells and incubated for 30 mins in 37° C./5% CO2. 25 μL of 8× final concentration of NECA (1 μM or 5 μM) was added to selected wells and incubated for 30 min in 37° C./5% CO2. Beads included in T cell activation/expansion kit (Miltenyi biotec Cat #130-091-441) at a bead-to-cell ratio of 1:6 in 50 μL were added to all wells with the final concentration of DMSO at 0.1% and final volume at 200 μL. 60 μL of supernatant post 24 hr and 48 hr incubation was collected for TNF-α and IFN-γ concentration evaluation using TNF-α ELISA ready-set-go kit (eBioscience, Cat #88-7346-77) and IFN-γ ELISA ready-set-go kit (eBioscience, Cat #88-7316-77), respectively.
For orientation: ELISA stands for enzyme-linked immunosorbent assay.

Sequence of human recombinant adenosine A2A receptor (P29274 whole entry): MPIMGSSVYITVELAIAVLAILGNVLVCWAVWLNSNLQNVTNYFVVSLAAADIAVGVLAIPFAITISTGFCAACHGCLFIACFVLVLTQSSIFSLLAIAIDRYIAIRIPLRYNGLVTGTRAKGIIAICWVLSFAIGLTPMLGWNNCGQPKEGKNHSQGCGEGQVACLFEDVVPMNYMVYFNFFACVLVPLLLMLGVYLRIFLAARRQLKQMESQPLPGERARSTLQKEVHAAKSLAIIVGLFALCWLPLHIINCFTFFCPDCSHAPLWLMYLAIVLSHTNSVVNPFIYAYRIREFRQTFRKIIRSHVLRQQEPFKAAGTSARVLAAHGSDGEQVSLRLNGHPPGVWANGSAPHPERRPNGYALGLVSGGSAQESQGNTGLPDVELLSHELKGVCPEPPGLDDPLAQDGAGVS
Sequence of adenosine A2a (human) membrane (P29274 whole entry): as above
Sequence of adenosine A1 (human) membrane (P30542 whole entry): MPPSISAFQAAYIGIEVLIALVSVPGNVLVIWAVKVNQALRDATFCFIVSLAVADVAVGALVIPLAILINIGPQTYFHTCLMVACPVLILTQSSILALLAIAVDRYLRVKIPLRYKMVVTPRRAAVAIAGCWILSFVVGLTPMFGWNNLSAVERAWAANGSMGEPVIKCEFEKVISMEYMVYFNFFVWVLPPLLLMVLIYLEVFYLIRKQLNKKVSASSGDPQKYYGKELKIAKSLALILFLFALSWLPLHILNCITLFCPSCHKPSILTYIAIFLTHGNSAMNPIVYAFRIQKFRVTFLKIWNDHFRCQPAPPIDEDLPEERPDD
Sequence of human recombinant adenosine A1 receptor (P30542 whole entry): as above

A word on the IC50: it is the concentration at which inhibition is half-maximal. As usually defined, the inhibition is the drop in the measured response relative to a control, in per cent. Low values mean little suppression, high ones strong suppression. Regarding `CC(C)n1cc(-c2cc3c(=O)cc[nH]c3nc2-c2ccccc2)ccc1=O` [Compound 1, 6-(1-isopropyl-6-oxo-1,6-dihydropyridin-3-yl)-7-phenyl-1,8-naphthyridin-4(1H)-one], the IC50 worked out at 2.6 nM in experiment [1], 3.2 nM in experiment [3] and 33.8 nM in experiment [4]. In experiment [2], this compound had an inhibition at 0.2 µM of 98%. In experiment [5] (FIG. 1), the “reversal of NECA-mediated suppression of TNF-α secretion” value is reported as “reversed NECA-mediated suppression”. Further, the “reversal of NECA-mediated suppression of IFN-γ secretion” value in experiment [5] (FIG. 2) was “reversed NECA-mediated suppression”.
Compound `Cc1cc(-c2cc3c(=O)cc[nH]c3nc2-c2cccc(C#N)c2C)cc(Cl)n1` [Compound 3, 3-(3-(2-chloro-6-methylpyridin-4-yl)-5-oxo-5,8-dihydro-1,8-naphthyridin-2-yl)-2-methylbenzonitrile] yielded an IC50 in experiment [1] of 2600 nM. In experiment [2], this compound registered an inhibition at 0.2 µM of 7%.
For `Cc1cc(-c2cc3c(=O)cc[nH]c3nc2-c2cccc(C#N)c2)cc(Cl)n1` [Compound 6, 3-(3-(2-chloro-6-methylpyridin-4-yl)-5-oxo-5,8-dihydro-1,8-naphthyridin-2-yl)benzonitrile], in that order: 113 nM and 26%.
As for `CC(C)n1cc(-c2cc3c(=O)cc[nH]c3nc2-c2ccccc2)cc(Cl)c1=O` [Compound 7, 6-(5-chloro-1-isopropyl-6-oxo-1,6-dihydropyridin-3-yl)-7-phenyl-1,8-naphthyridin-4(1H)-one], the IC50 in experiment [1] was determined as 3.5 nM; in experiment [3], 5.8 nM; in experiment [4], 11 nM.
`Cc1cc(-c2cc3c(=O)cc[nH]c3nc2-c2ccccc2)cc(Cl)c1NS(C)(=O)=O` [Compound 45, N-(2-chloro-6-methyl-4-(5-oxo-2-phenyl-5,8-dihydro-1,8-naphthyridin-3-yl)phenyl)methanesulfonamide] had an inhibition at 0.2 µM in experiment [2] of 34%. Also, in experiment [4], the IC50 is more than 10000 nM.
Regarding `Cc1c(C#N)cccc1-c1nc2[nH]ccc(=O)c2cc1-c1ccc2ncccc2c1` [Compound 55, 2-methyl-3-(5-oxo-3-(quinolin-6-yl)-5,8-dihydro-1,8-naphthyridin-2-yl)benzonitrile], the IC50 in experiment [1] was 179 nM. Further, in experiment [2], the inhibition at 0.2 µM was 5%.
With `Cn1cc(-c2cc3c(=O)cc[nH]c3nc2-c2ccccc2)cc(Cl)c1=O` [Compound 75], in experiment [2], the inhibition at 0.2 µM was 82%. Further, the IC50 in experiment [4] came out at 195 nM.
In the same order, the values of `Cn1cc(-c2cc3c(=O)cc[nH]c3nc2-c2ccccc2)ccc1=O` [Compound 76] are 92% and 156 nM.
For the compound `N#Cc1cccc(-c2nc3[nH]ccc(=O)c3cc2-c2ccc3ncccc3c2)c1` [Compound 77, 3-(5-oxo-3-(quinolin-6-yl)-5,8-dihydro-1,8-naphthyridin-2-yl)benzonitrile], the values for the half-maximal inhibitory concentration (IC50) in experiment [1] and in experiment [4] were 5.4 nM and 213 nM, respectively. For the same compound, testing at 0.2 µM in experiment [2] gave an inhibition of 61%.
With `N#Cc1cccc(-c2nc3[nH]ccc(=O)c3cc2-c2ccc3[nH]ncc3c2)c1` [Compound 78, 3-(3-(1H-indazol-5-yl)-5-oxo-5,8-dihydro-1,8-naphthyridin-2-yl)benzonitrile], the IC50 in experiment [1] was found to be 49 nM. The same compound registered an inhibition at 0.2 µM in experiment [2] of 81%.
For `N#Cc1cccc(-c2nc3[nH]ccc(=O)c3cc2-c2ccc3ncsc3c2)c1` [Compound 79, 3-(3-(benzo[d]thiazol-6-yl)-5-oxo-5,8-dihydro-1,8-naphthyridin-2-yl)benzonitrile], in that order: 9.5 nM and 85%.
In turn, `N#Cc1cccc(-c2nc3[nH]ccc(=O)c3cc2-c2ccc3[nH]cnc3c2)c1` [Compound 80, 3-(3-(1H-benzo[d]imidazol-5-yl)-5-oxo-5,8-dihydro-1,8-naphthyridin-2-yl)benzonitrile] gave an IC50 in experiment [1] of 17 nM. Moreover, the inhibition at 0.2 µM in experiment [2] was 79%.
